Experimental data published in patent US12479895B2, “C-terminal CDNF and MANF fragments, pharmaceutical compositions comprising same and uses thereof” (MyNeuroCure Oy, priority 2018, dated 2025).

How the values were obtained:
ER stressed SCG neurons = assay: Survival of tunicamycin-treated (ER stressed) SCG sympathetic neurons after microinjection; type: cell-based, mice; settings: for survived neurons as % compared to neurons grown in the presence of NGF: microinjected into cytoplasm, tunicamycin 2 μM, CDNF (400); for Fold change of survived neurons compared to neurons injected with PBS: data of Table 1 divided by values of PBS
Outline: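 Newborn mouse SCG neurons grown 5-6 days with 30 ng/ml NGF, then microinjected with CDNF (FL or C-terminal) plasmids (10 ng/ul, EGFP reporter) or proteins (200 ng/ul, Dextran Texas Red). Tunicamycin (2 μM) added next day. Fluorescent survivors counted blindly after 3 days as % of initial; compared with vector or PBS (ANOVA/Dunnett).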

dopamine neurons = assay: Survival of TH-positive dopamine neurons in dissociated midbrain floor cultures; type: cell-based, mouse; settings: for survived neurons as % compared to neurons grown in the presence of GDNF: 5 days; for Fold change of survived neurons compared to neurons grown without growth factors: data of Table 3 divided by values of no factor
Outline: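 Dissociated E13.5 NMRI mouse midbrain floor neurons grown five days in DMEM/F12 with N2, with polypeptides at a range of concentrations, GDNF (100 ng/ml), or nothing. TH-immunopositive neurons were counted by imaging. Values are a percentage of GDNF-maintained TH-positive neurons, as mean ± SEM from at least three independent cultures.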

[1] = Table 1A (FIG. 14), AVG of exp1-2
[2] = Table 1A (FIG. 14), exp1, counted after 3 days
[3] = Table 1A (FIG. 14), exp2, counted after 3 days
[4] = Table 3A (FIG. 15), AVG, 1 ng/ml
[5] = Table 3A (FIG. 15), AVG, 10 ng/ml
[6] = Table 3A (FIG. 15), AVG, 100 ng/ml
[7] = Table 3A (FIG. 15), AVG, 1000 ng/ml
[8] = Table 3A (FIG. 15), exp1, 1 ng/ml
[9] = Table 3A (FIG. 15), exp1, 10 ng/ml
[10] = Table 3A (FIG. 15), exp1, 100 ng/ml
[11] = Table 3A (FIG. 15), exp1, 1000 ng/ml
[12] = Table 3A (FIG. 15), exp2, 1 ng/ml
[13] = Table 3A (FIG. 15), exp2, 10 ng/ml
[14] = Table 3A (FIG. 15), exp2, 100 ng/ml
[15] = Table 3A (FIG. 15), exp2, 1000 ng/ml
[16] = Table 3A (FIG. 15), exp3, 1 ng/ml
[17] = Table 3A (FIG. 15), exp3, 10 ng/ml
[18] = Table 3A (FIG. 15), exp3, 100 ng/ml
[19] = Table 3A (FIG. 15), exp3, 1000 ng/ml

TLDLASVDLRKMRVAELKQILHSWGEECRACAEKTDYVNLIQELAPKYAATHPKTEL (listed as Homo sapiens) [pep2]
survived neurons as % compared to neurons grown in the presence of NGF (ER stressed SCG neurons; [1]): 77.52 % NGF
survived neurons as % compared to neurons grown in the presence of NGF (ER stressed SCG neurons; [2]): 79.71 % NGF
survived neurons as % compared to neurons grown in the presence of NGF (ER stressed SCG neurons; [3]): 75.32 % NGF
Fold change of survived neurons compared to neurons injected with PBS (ER stressed SCG neurons; Table 2, AVG): 2.11 Fold to PBS
Fold change of survived neurons compared to neurons injected with PBS (ER stressed SCG neurons; Table 2, exp1): 2.32 Fold to PBS
Fold change of survived neurons compared to neurons injected with PBS (ER stressed SCG neurons; Table 2, exp2): 1.90 Fold to PBS
survived neurons as % compared to neurons grown in the presence of GDNF (dopamine neurons; [4]): 67.69 % GDNF
survived neurons as % compared to neurons grown in the presence of GDNF (dopamine neurons; [5]): 69.82 % GDNF
survived neurons as % compared to neurons grown in the presence of GDNF (dopamine neurons; [6]): 68.98 % GDNF
survived neurons as % compared to neurons grown in the presence of GDNF (dopamine neurons; [7]): 66.30 % GDNF
survived neurons as % compared to neurons grown in the presence of GDNF (dopamine neurons; [8]): 81.18 % GDNF
survived neurons as % compared to neurons grown in the presence of GDNF (dopamine neurons; [9]): 74.74 % GDNF
survived neurons as % compared to neurons grown in the presence of GDNF (dopamine neurons; [10]): 81.00 % GDNF
survived neurons as % compared to neurons grown in the presence of GDNF (dopamine neurons; [11]): 83.01 % GDNF
survived neurons as % compared to neurons grown in the presence of GDNF (dopamine neurons; [12]): 52.61 % GDNF
survived neurons as % compared to neurons grown in the presence of GDNF (dopamine neurons; [13]): 58.93 % GDNF
survived neurons as % compared to neurons grown in the presence of GDNF (dopamine neurons; [14]): 47.98 % GDNF
survived neurons as % compared to neurons grown in the presence of GDNF (dopamine neurons; [15]): 52.95 % GDNF
survived neurons as % compared to neurons grown in the presence of GDNF (dopamine neurons; [16]): 69.28 % GDNF
survived neurons as % compared to neurons grown in the presence of GDNF (dopamine neurons; [17]): 75.80 % GDNF
survived neurons as % compared to neurons grown in the presence of GDNF (dopamine neurons; [18]): 77.95 % GDNF
survived neurons as % compared to neurons grown in the presence of GDNF (dopamine neurons; [19]): 62.94 % GDNF
Fold change of survived neurons compared to neurons grown without growth factors (dopamine neurons; Table 4, AVG, 1 ng/ml): 1.11 fold
Fold change of survived neurons compared to neurons grown without growth factors (dopamine neurons; Table 4, AVG, 10 ng/ml): 1.14 fold
Fold change of survived neurons compared to neurons grown without growth factors (dopamine neurons; Table 4, AVG, 100 ng/ml): 1.13 fold
Fold change of survived neurons compared to neurons grown without growth factors (dopamine neurons; Table 4, AVG, 1000 ng/ml): 1.09 fold
Fold change of survived neurons compared to neurons grown without growth factors (dopamine neurons; Table 4, exp1, 1 ng/ml): 1.42 fold
Fold change of survived neurons compared to neurons grown without growth factors (dopamine neurons; Table 4, exp1, 10 ng/ml): 1.31 fold
Fold change of survived neurons compared to neurons grown without growth factors (dopamine neurons; Table 4, exp1, 100 ng/ml): 1.42 fold
Fold change of survived neurons compared to neurons grown without growth factors (dopamine neurons; Table 4, exp1, 1000 ng/ml): 1.45 fold
Fold change of survived neurons compared to neurons grown without growth factors (dopamine neurons; Table 4, exp2, 1 ng/ml): 0.83 fold
Fold change of survived neurons compared to neurons grown without growth factors (dopamine neurons; Table 4, exp2, 10 ng/ml): 0.93 fold
Fold change of survived neurons compared to neurons grown without growth factors (dopamine neurons; Table 4, exp2, 100 ng/ml): 0.76 fold
Fold change of survived neurons compared to neurons grown without growth factors (dopamine neurons; Table 4, exp2, 1000 ng/ml): 0.84 fold
Fold change of survived neurons compared to neurons grown without growth factors (dopamine neurons; Table 4, exp3, 1 ng/ml): 1.07 fold
Fold change of survived neurons compared to neurons grown without growth factors (dopamine neurons; Table 4, exp3, 10 ng/ml): 1.17 fold
Fold change of survived neurons compared to neurons grown without growth factors (dopamine neurons; Table 4, exp3, 100 ng/ml): 1.20 fold
Fold change of survived neurons compared to neurons grown without growth factors (dopamine neurons; Table 4, exp3, 1000 ng/ml): 0.97 fold

KYEKTLDLASVDLRKMRVAELKQILHSWGEECRACAEKTDYVNLIQELAPKYA (listed as Homo sapiens) [pep3]
survived neurons as % compared to neurons grown in the presence of NGF (ER stressed SCG neurons; [1]): 85.46 % NGF
survived neurons as % compared to neurons grown in the presence of NGF (ER stressed SCG neurons; [2]): 83.08 % NGF
survived neurons as % compared to neurons grown in the presence of NGF (ER stressed SCG neurons; [3]): 87.84 % NGF
Fold change of survived neurons compared to neurons injected with PBS (ER stressed SCG neurons; Table 2, AVG): 2.32 Fold to PBS
Fold change of survived neurons compared to neurons injected with PBS (ER stressed SCG neurons; Table 2, exp1): 2.42 Fold to PBS
Fold change of survived neurons compared to neurons injected with PBS (ER stressed SCG neurons; Table 2, exp2): 2.21 Fold to PBS
survived neurons as % compared to neurons grown in the presence of GDNF (dopamine neurons; [4]): 66.40 % GDNF
survived neurons as % compared to neurons grown in the presence of GDNF (dopamine neurons; [5]): 73.60 % GDNF
survived neurons as % compared to neurons grown in the presence of GDNF (dopamine neurons; [6]): 74.14 % GDNF
survived neurons as % compared to neurons grown in the presence of GDNF (dopamine neurons; [7]): 81.99 % GDNF
survived neurons as % compared to neurons grown in the presence of GDNF (dopamine neurons; [8]): 73.87 % GDNF
survived neurons as % compared to neurons grown in the presence of GDNF (dopamine neurons; [9]): 74.30 % GDNF
survived neurons as % compared to neurons grown in the presence of GDNF (dopamine neurons; [10]): 85.15 % GDNF
survived neurons as % compared to neurons grown in the presence of GDNF (dopamine neurons; [11]): 84.53 % GDNF
survived neurons as % compared to neurons grown in the presence of GDNF (dopamine neurons; [12]): 62.76 % GDNF
survived neurons as % compared to neurons grown in the presence of GDNF (dopamine neurons; [13]): 64.35 % GDNF
survived neurons as % compared to neurons grown in the presence of GDNF (dopamine neurons; [14]): 58.79 % GDNF
survived neurons as % compared to neurons grown in the presence of GDNF (dopamine neurons; [15]): 80.59 % GDNF
survived neurons as % compared to neurons grown in the presence of GDNF (dopamine neurons; [16]): 62.58 % GDNF
survived neurons as % compared to neurons grown in the presence of GDNF (dopamine neurons; [17]): 82.16 % GDNF
survived neurons as % compared to neurons grown in the presence of GDNF (dopamine neurons; [18]): 78.46 % GDNF
survived neurons as % compared to neurons grown in the presence of GDNF (dopamine neurons; [19]): 80.86 % GDNF
Fold change of survived neurons compared to neurons grown without growth factors (dopamine neurons; Table 4, AVG, 1 ng/ml): 1.08 fold
Fold change of survived neurons compared to neurons grown without growth factors (dopamine neurons; Table 4, AVG, 10 ng/ml): 1.20 fold
Fold change of survived neurons compared to neurons grown without growth factors (dopamine neurons; Table 4, AVG, 100 ng/ml): 1.21 fold
Fold change of survived neurons compared to neurons grown without growth factors (dopamine neurons; Table 4, AVG, 1000 ng/ml): 1.34 fold
Fold change of survived neurons compared to neurons grown without growth factors (dopamine neurons; Table 4, exp1, 1 ng/ml): 1.29 fold
Fold change of survived neurons compared to neurons grown without growth factors (dopamine neurons; Table 4, exp1, 10 ng/ml): 1.30 fold
Fold change of survived neurons compared to neurons grown without growth factors (dopamine neurons; Table 4, exp1, 100 ng/ml): 1.49 fold
Fold change of survived neurons compared to neurons grown without growth factors (dopamine neurons; Table 4, exp1, 1000 ng/ml): 1.48 fold
Fold change of survived neurons compared to neurons grown without growth factors (dopamine neurons; Table 4, exp2, 1 ng/ml): 1.00 fold
Fold change of survived neurons compared to neurons grown without growth factors (dopamine neurons; Table 4, exp2, 10 ng/ml): 1.02 fold
Fold change of survived neurons compared to neurons grown without growth factors (dopamine neurons; Table 4, exp2, 100 ng/ml): 0.93 fold
Fold change of survived neurons compared to neurons grown without growth factors (dopamine neurons; Table 4, exp2, 1000 ng/ml): 1.28 fold
Fold change of survived neurons compared to neurons grown without growth factors (dopamine neurons; Table 4, exp3, 1 ng/ml): 0.97 fold
Fold change of survived neurons compared to neurons grown without growth factors (dopamine neurons; Table 4, exp3, 10 ng/ml): 1.27 fold
Fold change of survived neurons compared to neurons grown without growth factors (dopamine neurons; Table 4, exp3, 100 ng/ml): 1.21 fold
Fold change of survived neurons compared to neurons grown without growth factors (dopamine neurons; Table 4, exp3, 1000 ng/ml): 1.25 fold

TLDLASVDLRKMRVAELKQILHSWGEESRACAEKTDYVNLIQELAPKYA (C-CDNF peptide with single amino acid substitution) [pep9]
survived neurons as % compared to neurons grown in the presence of NGF (ER stressed SCG neurons; Table 1B (FIG. 16), exp1, counted after 3 days): 41.23 % NGF
survived neurons as % compared to neurons grown in the presence of NGF (ER stressed SCG neurons; Table 1B (FIG. 16), exp2, counted after 3 days): 44.00 % NGF
survived neurons as % compared to neurons grown in the presence of NGF (ER stressed SCG neurons; Table 1B (FIG. 16), exp3, counted after 3 days): 44.44 % NGF
survived neurons as % compared to neurons grown in the presence of GDNF (dopamine neurons; Table 3B (FIG. 17), AVG, 1 ng/ml): 62.74 % GDNF
survived neurons as % compared to neurons grown in the presence of GDNF (dopamine neurons; Table 3B (FIG. 17), AVG, 10 ng/ml): 69.29 % GDNF
survived neurons as % compared to neurons grown in the presence of GDNF (dopamine neurons; Table 3B (FIG. 17), AVG, 100 ng/ml): 71.62 % GDNF
survived neurons as % compared to neurons grown in the presence of GDNF (dopamine neurons; Table 3B (FIG. 17), AVG, 1000 ng/ml): 67.12 % GDNF
